In article PMC4172859, “Positive Darwinian selection is a driving force for the diversification of terpenoid biosynthesis in the genus Oryza” (BMC Plant Biology, 2014):

Key:
Experiment in all cases: SPME GC-MS product analysis, recombinant E. coli extract
Type in all cases: biochemical
Conditions in all cases: 10 uM FPP, 10 mM MgCl2, pH 7.0, 30 °C; mere turnover
ObTPS1 [1] = biological target: T1, ObTPS1 (Oryza barthii, UniProt A0A0D3GW75, F318L/C429G/V433I)
T1 construct: full-length cDNA in pEXP5-CT/TOPO, E. coli BL21 Codon Plus, desalted extract
T1 sequence (A0A0D3GW75 entry or part of it F318L/C429G/V433I): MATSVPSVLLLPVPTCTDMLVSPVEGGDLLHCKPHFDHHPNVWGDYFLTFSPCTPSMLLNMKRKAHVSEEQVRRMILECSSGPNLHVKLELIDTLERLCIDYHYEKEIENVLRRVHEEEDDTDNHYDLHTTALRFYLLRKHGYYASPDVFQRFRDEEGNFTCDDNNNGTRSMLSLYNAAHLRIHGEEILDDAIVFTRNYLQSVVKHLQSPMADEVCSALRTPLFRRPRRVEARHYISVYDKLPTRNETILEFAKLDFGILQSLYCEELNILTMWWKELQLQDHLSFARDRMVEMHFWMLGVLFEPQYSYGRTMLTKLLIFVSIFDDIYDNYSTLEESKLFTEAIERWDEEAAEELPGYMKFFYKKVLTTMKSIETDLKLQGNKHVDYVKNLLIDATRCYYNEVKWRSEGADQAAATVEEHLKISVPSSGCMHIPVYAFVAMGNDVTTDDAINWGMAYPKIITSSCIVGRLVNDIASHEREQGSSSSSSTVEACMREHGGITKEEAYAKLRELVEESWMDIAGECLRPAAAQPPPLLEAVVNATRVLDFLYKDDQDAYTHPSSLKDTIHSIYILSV

ObTPS1 [2] = biological target: T2, ObTPS1 (Oryza barthii, UniProt A0A0D3GW75)
T2 construct: full-length cDNA in pEXP5-CT/TOPO, E. coli BL21 Codon Plus, desalted extract
T2 sequence (A0A0D3GW75 1-575): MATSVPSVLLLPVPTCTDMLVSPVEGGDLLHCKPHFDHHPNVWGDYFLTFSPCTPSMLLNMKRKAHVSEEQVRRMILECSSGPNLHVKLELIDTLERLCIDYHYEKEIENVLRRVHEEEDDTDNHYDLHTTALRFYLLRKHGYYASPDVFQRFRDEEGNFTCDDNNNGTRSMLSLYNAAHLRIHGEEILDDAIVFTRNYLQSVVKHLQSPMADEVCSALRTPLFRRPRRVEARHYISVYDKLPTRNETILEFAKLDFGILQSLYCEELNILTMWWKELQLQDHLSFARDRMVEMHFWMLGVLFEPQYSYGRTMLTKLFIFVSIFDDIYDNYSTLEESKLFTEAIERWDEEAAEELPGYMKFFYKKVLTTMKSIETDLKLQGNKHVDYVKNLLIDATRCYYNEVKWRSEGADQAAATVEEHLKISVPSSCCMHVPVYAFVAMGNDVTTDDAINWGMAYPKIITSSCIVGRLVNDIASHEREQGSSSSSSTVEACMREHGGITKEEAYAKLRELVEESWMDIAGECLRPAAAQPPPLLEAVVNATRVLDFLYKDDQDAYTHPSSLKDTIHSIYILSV

[3] = biological target: T3, OryzaTPS1 (O. glaberrima) (Oryza glaberrima, UniProt I1QFJ1)
T3 construct: gene LOC127781497; full-length cDNA in pEXP5-CT/TOPO, E. coli BL21 Codon Plus, desalted extract
T3 sequence (I1QFJ1 1-575): T2 sequence (A0A0D3GW75 1-575)

[4] = biological target: T4, OryzaTPS1 (O. glumaepatula) (Oryza glumipatula, UniProt A0A076L503)
T4 construct: full-length cDNA in pEXP5-CT/TOPO, E. coli BL21 Codon Plus, desalted extract
T4 sequence (A0A076L503 1-574): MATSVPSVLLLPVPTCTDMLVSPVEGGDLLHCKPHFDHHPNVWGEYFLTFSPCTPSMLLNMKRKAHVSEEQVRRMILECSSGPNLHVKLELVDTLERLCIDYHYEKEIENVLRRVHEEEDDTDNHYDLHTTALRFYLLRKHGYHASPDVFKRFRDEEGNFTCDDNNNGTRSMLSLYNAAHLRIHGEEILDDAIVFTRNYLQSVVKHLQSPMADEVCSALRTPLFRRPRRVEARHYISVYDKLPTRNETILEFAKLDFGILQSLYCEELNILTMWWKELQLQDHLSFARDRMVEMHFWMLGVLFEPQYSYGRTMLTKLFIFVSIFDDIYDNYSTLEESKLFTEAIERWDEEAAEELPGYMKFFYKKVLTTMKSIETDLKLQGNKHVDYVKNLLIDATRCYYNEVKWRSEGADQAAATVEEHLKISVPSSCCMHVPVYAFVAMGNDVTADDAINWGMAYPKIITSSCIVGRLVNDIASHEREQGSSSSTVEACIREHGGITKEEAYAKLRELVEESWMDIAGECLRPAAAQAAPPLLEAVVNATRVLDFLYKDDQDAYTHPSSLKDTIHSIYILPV

OryzaTPS1 (O. nivara) = biological target: T5, OryzaTPS1 (O. nivara) (Oryza nivara, UniProt A0A076L4Z9)
T5 construct: full-length cDNA in pEXP5-CT/TOPO, E. coli BL21 Codon Plus, desalted extract
T5 sequence (A0A076L4Z9 1-575): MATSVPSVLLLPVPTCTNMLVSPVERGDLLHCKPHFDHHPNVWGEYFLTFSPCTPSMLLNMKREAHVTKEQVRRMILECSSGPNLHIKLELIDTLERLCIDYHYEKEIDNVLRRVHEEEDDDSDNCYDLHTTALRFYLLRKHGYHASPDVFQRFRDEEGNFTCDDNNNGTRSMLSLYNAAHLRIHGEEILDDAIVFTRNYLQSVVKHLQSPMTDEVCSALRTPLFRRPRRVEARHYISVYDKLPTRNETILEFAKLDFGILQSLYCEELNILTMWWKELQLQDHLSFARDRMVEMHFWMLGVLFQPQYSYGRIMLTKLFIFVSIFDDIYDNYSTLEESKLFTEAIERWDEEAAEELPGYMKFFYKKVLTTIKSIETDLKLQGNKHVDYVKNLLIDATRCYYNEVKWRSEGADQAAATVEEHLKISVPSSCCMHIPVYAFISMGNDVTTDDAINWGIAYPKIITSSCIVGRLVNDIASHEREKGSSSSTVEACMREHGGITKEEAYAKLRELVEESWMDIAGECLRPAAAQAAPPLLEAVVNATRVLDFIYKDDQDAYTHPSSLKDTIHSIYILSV

CC(C)=CCC/C(C)=C/CC/C(C)=C/COP(=O)(O)OP(=O)(O)O [(E, E)-farnesyl diphosphate]
SPME GC-MS product analysis, recombinant E. coli extract (ObTPS1 [1]): The triple mutant ObTPS1-F318L + C429G + V433I produced comparable amounts of germacrene A, germacrene D | SPME GC-MS product analysis, recombinant E. coli extract (ObTPS1 [2]): The enzymes were expressed in E. coli, extracted, and incubated with the substrate (E, E)-farnesyl diphosphate | SPME GC-MS product analysis, recombinant E. coli extract [3]: All these proteins were biochemically active | SPME GC-MS product analysis, recombinant E. coli extract [4]: All these proteins were biochemically active | SPME GC-MS product analysis, recombinant E. coli extract (OryzaTPS1 (O. nivara)): All these proteins were biochemically active
